# Test results reported in ChEMBL document CHEMBL1123179, “4-Amino-2-(substituted methyl)-2-butenoic acids: substrates and potent inhibitors of gamma-aminobutyric acid aminotransferase” (J Med Chem, 1986).
# Target: 4-aminobutyrate aminotransferase, mitochondrial (Sus scrofa, UniProt P80147)
# Assay: Compound was tested for the inhibitory effect against Gamma-amino-N-butyrate transaminase from pig brain
# Sequence of 4-aminobutyrate aminotransferase, mitochondrial (P80147 whole entry): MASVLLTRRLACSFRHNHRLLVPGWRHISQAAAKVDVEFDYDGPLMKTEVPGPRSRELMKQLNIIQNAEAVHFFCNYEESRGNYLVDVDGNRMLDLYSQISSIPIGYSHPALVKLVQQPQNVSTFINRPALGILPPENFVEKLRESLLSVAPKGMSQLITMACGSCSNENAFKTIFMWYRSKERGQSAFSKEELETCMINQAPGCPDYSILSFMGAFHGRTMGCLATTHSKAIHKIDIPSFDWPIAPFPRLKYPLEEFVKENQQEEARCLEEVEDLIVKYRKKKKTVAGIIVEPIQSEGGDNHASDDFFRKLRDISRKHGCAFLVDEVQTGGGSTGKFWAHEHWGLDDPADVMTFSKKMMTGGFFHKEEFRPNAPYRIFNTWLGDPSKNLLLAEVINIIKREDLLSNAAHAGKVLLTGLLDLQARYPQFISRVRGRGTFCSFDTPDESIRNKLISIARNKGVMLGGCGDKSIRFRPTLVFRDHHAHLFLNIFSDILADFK
row,Ki [µM],SMILES
1,5,NC/C=C(\CO)C(=O)O
2,24,NC/C=C(\CCl)C(=O)O

row,SMILES,Ki [µM]
1,NC/C=C(\CF)C(=O)O,19
